{"source": "patent US20240269238A1", "about": "“Therapeutic Regimens and Methods for Reducing Body Weight in a Subject with Fatty Liver Disease using a GLP-1R and GCGR Agonist” (Spitfire Pharma LLC, priority 2022, published 2024)", "origin": "cited, not measured here", "key": {"[1]": {"details": "over 26 weeks of administration; cited from earlier work"}, "liver fat content": {"system": "liver fat content", "details": "6 weeks; cited from earlier work"}}}
{"smiles": "CCCCCCCCCCCCCCCC(=O)N[C@@H](CCC(=O)NCCCC[C@H](NC(=O)[C@H](CC(=O)O)NC(=O)[C@H](CO)NC(=O)[C@@H](NC(=O)[C@H](Cc1ccccc1)NC(=O)[C@@H](NC(=O)CNC(=O)[C@H](CCC(N)=O)NC(=O)[C@H](CO)NC(=O)[C@@H](N)Cc1c[nH]cn1)[C@@H](C)O)[C@@H](C)O)C(=O)N[C@@H](CO)C(=O)N[C@@H](CCC(=O)O)C(=O)N[C@@H](Cc1ccc(O)cc1)C(=O)N[C@@H](CC(C)C)C(=O)N[C@@H](CC(=O)O)C(=O)N[C@@H](CO)C(=O)N[C@@H](CCC(=O)O)C(=O)N[C@@H](CCCNC(=N)N)C(=O)N[C@@H](C)C(=O)N[C@@H](CCCNC(=N)N)C(=O)N[C@@H](CC(=O)O)C(=O)N[C@@H](Cc1ccccc1)C(=O)N[C@H](C(=O)N[C@@H](C)C(=O)N[C@@H](Cc1c[nH]c2ccccc12)C(=O)N[C@@H](CC(C)C)C(=O)N[C@@H](CCC(=O)O)C(=O)N[C@@H](C)C(=O)NCC(=O)NCC(=O)O)C(C)C)C(=O)O", "note": "[cotadutide]", "values": [{"measurement": "weight loss", "setting": "[1]", "value": 5.4, "unit": "%"}, {"measurement": "reduction in liver fat content", "setting": "liver fat content", "value": 39, "unit": "%"}]}
